According to ChEMBL document CHEMBL1125184, “Active conformation of 1,4-dihydropyridine calcium entry blockers. Effect of size of 2-aryl substituent on rotameric equilibria and receptor binding” (J Med Chem, 1991):

Assay: Slope was measured from percentage of specific binding with time

Slope	SMILES
1.6	CCCC(=O)OC.CO/C(O)=C1/C(C)=NCCC1c1ccccc1F (centres undefined)
1.4	CCCC(=O)OC.CO/C(O)=C1/C(C)=NCCC1c1ccccc1Cl (centres undefined)
1.3	CCCC(=O)OC.CO/C(O)=C1/C(C)=NCCC1c1ccccc1Br (centres undefined)
1.2	CCCC(=O)OC.CO/C(O)=C1/C(C)=NCCC1c1ccccc1I (centres undefined)
